The results in this text go back to patent publication US10780092B2, “Fused pyrazine derivatives useful as soluble guanylate cyclase stimulators” (Merck Sharp & Dohme Corp., priority 2016, dated 2020).

pEC50, pKi: −log10 of the molar value.

Broadly, the pKi is the negative decadic logarithm of the Ki, by convention in mol/L.

In one assay the target is sGC α1/β1 heterodimer (Homo sapiens (Human), UniProt Q02108+Q02153). The assay can be described thus: Cell-based sGC functional assay (CASA assay), cGMP by HTRF. Conditions: CHO-K1/sGC cells; for Emax: CHO-K1, cGMP production as percentage of maximum of compound A (set to 100%), read-out: % Activation; for pEC50: inflection point of cGMP production, 4P fit, read-out: IP. Put shortly: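 cGMP made in CHO-K1/sGC (human α1/β1) cells is read by HTRF after compound treatment for 1 hr at 37° C, following 30 min at 25° C with or without 1 μM DETA-NO; IBMX 0.5 mM present. Values are % of standard compound maximum; 4P fit.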
For orientation: Time-resolved FRET reads energy transfer from a long-lived donor to a nearby acceptor.

The target in assay [1] is human recombinant sGC enzyme (Homo sapiens (Human), UniProt Q02108+Q02153). In words: SEC competition binding assay with [3H] Compound B radioligand. To be noted: displacement of 1.6 nM [3H] Compound B, 24 h at 37° C. Put shortly: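 Competition format: [3H] Compound B (1.6 nM) displaced from human recombinant sGC over 24 h at 37° C. in triethanolamine pH 7.4 buffer with MgCl2, BSA, DTT, 300 μM DETA/NO and 400 μM GTP (1% DMSO). Gel-filtration eluates counted by liquid scintillation; 1 μM Compound B defined non-specific binding; Ki by one-site fit.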

In assay [2] the test system is hypoxia-induced pulmonary hypertension in rat. In words: Acute efficacy in hypoxia-induced pulmonary hypertension in rat following intratracheal (IT) administration. The format is in vivo. To be noted: decrease in SBP at dose giving decrease in PAP ≥15 mmHg. The text has this:
Acute Efficacy in Hypoxia-Induced Pulmonary Hypertension in Rat Following Intratracheal (IT) Administration Charles River Sprague-Dawley (CD) male rats weighing approximately 350 g were implanted with HD-S21 dual pressure telemetry transmitters (Data Sciences International (DSI)) into the pulmonary artery and femoral artery. This transmitter enables simultaneous measurement of both pulmonary and systemic hemodynamic parameters in the same animal. After a 7-10 day post-operative recovery period, animals were subjected to a normobaric hypoxic (10% oxygen) environment using a Higher Peak Mountain Air Generator (MAG-10) connected to a modified rodent cage via a fitted inlet port. Oxygen (at 10%), temperature, humidity, and CO2 were controlled within normal range and animals were maintained on a 12 hour light-dark cycle with ad libitum access to food and water. After two weeks exposure to 10% O2 hypoxic environment, systolic pulmonary arterial pressure readings increased from ˜25 mmHg to greater than 50 mmHg. Using a 48 hour baseline average, animals with readings between 50-110 mmHg (standard deviation of less than 10 mmHg) and minimal changes in systolic systemic blood pressure were enrolled for study. Animals were utilized for up to 2 studies per week for 4 weeks with a minimum of 2 days washout between doses of test agent. Compound or vehicle was administered intra-tracheally under light isoflurane anesthesia (5% in oxygen; flow rate 2.0 L/min for 3 minutes). Once anesthetized, rats were placed on an angled intubation stand in supine position and the trachea visualized using a small laryngoscope. Animals then received either 0.5 mL/kg of vehicle or 0.5 mL/kg vehicle containing compound intra-tracheally delivered via microsprayer by use of a Penn-Century Microsprayer® needle 3″ (Model IA-1B-GP) attached to a 1 mL high pressure syringe (Penn Century-Model B—SYR-PL1000) (Penn-Century, Philadelphia, Pa.). The Microsprayer® tip was inserted into the trachea up to the point at which the bend in the needle is close to the tip of the snout, which positions the tip of the Microsprayer® in front of the carina (bifurcation of trachea at the bronchi). After dose delivery the animal is placed on its back in the home cage for recovery. Hemodynamic measurements were continuously recorded and readings consolidated to hourly moving averages. Each animal received a vehicle on Day 1 followed by vehicle or test agent on Day 2. Change from vehicle baseline was calculated by subtracting the hourly Day 1 vehicle response from the hourly Day 2 response and treatment group data was expressed as mean±SEM. Decreases of systolic blood pressure (SBP) and systolic pulmonary arterial pressure (PAP) were measured at a particular IT dose (mpk milligrams per kilogram) for the following Example compounds. Compounds in the Table 13 achieved a minimum decrease in PAP of ≥15 mmHg for the corresponding decrease in SBP listed.

For `CC1(c2ccc(F)c(O)c2)C(=O)Nc2nc(-c3cn4ccnc4c(CCC(F)(F)C(F)(F)F)n3)nc(N)c21` (racemic) [Example 115-B, 4-Amino-5-(4-fluoro-3-hydroxyphenyl)-5-methyl-2-(8-(3,3,4,4,4-pentafluorobutyl)-imidazo[1,2-a]pyrazin-6-yl)-5,7-dihydro-6H-pyrrolo[2,3-d]pyrimidin-6-one], on sGC α1/β1 heterodimer, the Emax was determined as 79% and the pEC50 was 7.20. Besides, the pKi in assay [1] is 8.30. Also, the “Category (decrease in SBP)” value in assay [2] (IT dose 0.3 mpk) is reported as “C (decrease in SBP >10 mmHg)”.
In the same order, the values of `CC1(c2ccc(O)c(F)c2)C(=O)Nc2nc(-c3cn4ccnc4c(CCC(F)(F)C(F)(F)F)n3)nc(N)c21` (racemic) [Example 117-B, 4-Amino-5-(3-fluoro-4-hydroxyphenyl)-5-methyl-2-(8-(3,3,4,4,4-pentafluorobutyl)-imidazo[1,2-a]pyrazin-6-yl)-5,7-dihydro-6H-pyrrolo[2,3-d]pyrimidin-6-one] are 94%, 6.96, 8.07 and “C (decrease in SBP >10 mmHg)”.
Take `CC1(c2ccc(Cl)c(O)c2)C(=O)Nc2nc(-c3cn4ccnc4c(Cc4cccc(F)c4)n3)nc(N)c21` (stereo not shown) [Example 1-A, 4-Amino-5-(4-chloro-3-hydroxyphenyl)-2-{8-[(3-fluorophenyl)methyl]imidazo[1,2-a]pyrazin-6-yl}-5-methyl-5,7-dihydro-6H-pyrrolo[2,3-d]pyrimidin-6-one]: on sGC α1/β1 heterodimer, the Emax was 118% and the pEC50 is 6.65. In addition, the pKi in assay [1] is 10.02. The “Category (decrease in SBP)” value in assay [2] (IT dose 0.01 mpk) is “A (decrease in SBP 0-5 mmHg)”.
On to `CC1(c2cc(O)c(Cl)c(F)c2)C(=O)Nc2nc(-c3cn4ccnc4c(Cc4ccccc4F)n3)nc(N)c21` (stereo not shown) [Example 2-B, 4-Amino-5-(4-chloro-3-fluoro-5-hydroxyphenyl)-2-{8-[(2-fluorophenyl)methyl]imidazo[1,2-a]pyrazin-6-yl}-5-methyl-5,7-dihydro-6H-pyrrolo[2,3-d]pyrimidin-6-one], for which, at sGC α1/β1 heterodimer, the Emax amounted to 89% and the pEC50 is 5.79. In addition, the pKi in assay [1] is 10.02. The “Category (decrease in SBP)” value in assay [2] (IT dose 0.01 mpk) is “A (decrease in SBP 0-5 mmHg)”.
`CC1(c2ccc(C(F)(F)F)c(O)c2)C(=O)Nc2nc(-c3cn4ccnc4c(Cc4ccccc4F)n3)nc(N)c21` (stereo not shown) [Example 3-B, 4-Amino-2-{8-[(2-fluorophenyl)methyl]imidazo[1,2-a]pyrazin-6-yl}-5-[3-hydroxy-4-(trifluoromethyl)phenyl]-5-methyl-5,7-dihydro-6H-pyrrolo[2,3-d]pyrimidin-6-one]: on sGC α1/β1 heterodimer, the Emax was found to be 98% and the pEC50 was 5.68. Also, in assay [1], the pKi was 9.66. Also, in assay [2] (IT dose 0.03 mpk), the “Category (decrease in SBP)” value is listed as “A (decrease in SBP 0-5 mmHg)”.
For the molecule `CC1(c2cc(O)c(Cl)cn2)C(=O)Nc2nc(-c3cn4ccnc4c(Cc4ccccc4F)n3)nc(N)c21` (stereo not shown) [Example 4-B, 4-Amino-5-(5-chloro-4-hydroxypyridin-2-yl)-2-{8-[(2-fluorophenyl)methyl]imidazo[1,2-a]pyrazin-6-yl}-5-methyl-5,7-dihydro-6H-pyrrolo[2,3-d]pyrimidin-6-one], on sGC α1/β1 heterodimer, the Emax was 136% and the pEC50 is 5.72. Also, in assay [1], the pKi is 9.59. Besides, the “Category (decrease in SBP)” value in assay [2] (IT dose 0.03 mpk) is listed as “A (decrease in SBP 0-5 mmHg)”.
On to `CC1(c2ccc(Cl)c(O)c2)C(=O)Nc2nc(-c3cn4ccnc4c(Cc4ccccc4F)n3)nc(N)c21` (stereo not shown) [Example 8-A, 4-Amino-5-(4-chloro-3-hydroxyphenyl)-2-{8-[(2-fluorophenyl)methyl]imidazo[1,2-a]pyrazin-6-yl}-5-methyl-5,7-dihydro-6H-pyrrolo[2,3-d]pyrimidin-6-one], for which, on sGC α1/β1 heterodimer, the Emax amounted to 72% and the pEC50 is 6.50. In addition, the pKi in assay [1] is 9.93. Also, the “Category (decrease in SBP)” value in assay [2] (IT dose 0.01 mpk) was “B (decrease in SBP 5-10 mmHg)”.
In the same order, the values of `CC1(c2cccc(O)c2)C(=O)Nc2nc(-c3cn4ccnc4c(Cc4cc(F)ccc4F)n3)nc(N)c21` (stereo not shown) [Example 11-B, 4-Amino-2-{8-[(2,5-difluorophenyl)methyl]imidazo[1,2-a]pyrazin-6-yl}-5-(3-hydroxyphenyl)-5-methyl-5,7-dihydro-6H-pyrrolo[2,3-d]pyrimidin-6-one] are 137%, 6.30, 9.87 and “B (decrease in SBP 5-10 mmHg)”.
As to `CC1(c2ccc(F)c(O)c2)C(=O)Nc2nc(-c3cn4ccnc4c(Cc4ccccc4F)n3)nc(N)c21` (stereo not shown) [Example 13-B, 4-Amino-5-(4-fluoro-3-hydroxyphenyl)-2-{8-[(2-fluorophenyl)methyl]imidazo[1,2-a]pyrazin-6-yl}-5-methyl-5,7-dihydro-6H-pyrrolo[2,3-d]pyrimidin-6-one], at sGC α1/β1 heterodimer, the Emax amounted to 100% and the pEC50 is 6.09. Also, the pKi in assay [1] is 9.81. Also, the “Category (decrease in SBP)” value in assay [2] (IT dose 0.01 mpk) is recorded as “A (decrease in SBP 0-5 mmHg)”.
With `CC1(c2ccc(Cl)c(O)c2)C(=O)Nc2nc(-c3cn4ccnc4c(CC4CCCCC4)n3)nc(N)c21` (stereo not shown) [Example 14-A, 4-Amino-5-(4-chloro-3-hydroxyphenyl)-2-(8-(cyclohexylmethyl)imidazo[1,2-a]pyrazin-6-yl)-5-methyl-5,7-dihydro-6H-pyrrolo[2,3-d]pyrimidin-6-one], on sGC α1/β1 heterodimer, the Emax worked out at 68% and the pEC50 is 6.84. In assay [1], the pKi is 9.81. Also, the “Category (decrease in SBP)” value in assay [2] (IT dose 0.01 mpk) is “A (decrease in SBP 0-5 mmHg)”.
`CC1(c2cc(O)c(C#N)c(F)c2)C(=O)Nc2nc(-c3cn4ccnc4c(CC4CCCCC4)n3)nc(N)c21` (stereo not shown) [Example 18-B, 4-(4-Amino-2-(8-(cyclohexylmethyl)imidazo[1,2-a]pyrazin-6-yl)-5-methyl-6-oxo-6,7-dihydro-5H-pyrrolo[2,3-d]pyrimidin-5-yl)-2-fluoro-6-hydroxybenzonitrile]: on sGC α1/β1 heterodimer, the Emax was determined as 88% and the pEC50 was 6.02. The pKi in assay [1] was 9.77. Further, the “Category (decrease in SBP)” value in assay [2] (IT dose 0.03 mpk) is “B (decrease in SBP 5-10 mmHg)”.
In the same order, the values of `CC1(c2cc(O)c(C#N)c(F)c2)C(=O)Nc2nc(-c3cn4ccnc4c(Cc4ccccc4F)n3)nc(N)c21` (stereo not shown) [Example 23-B, 4-(4-Amino-2-{8-[(2-fluorophenyl)methyl]imidazo[1,2-a]pyrazin-6-yl}-5-methyl-6-oxo-6,7-dihydro-5H-pyrrolo[2,3-d]pyrimidin-5-yl)-2-fluoro-6-hydroxybenzonitrile] are 76%, 5.51, 9.67 and “A (decrease in SBP 0-5 mmHg)”.
In the same order, the values of `CC(C)CCc1nc(-c2nc(N)c3c(n2)NC(=O)C3(C)c2ccc(Cl)c(O)c2)cn2ccnc12` (stereo not shown) [Example 25-A, 4-Amino-5-(4-chloro-3-hydroxyphenyl)-2-(8-isopentylimidazo[1,2-a]pyrazin-6-yl)-5-methyl-5,7-dihydro-6H-pyrrolo[2,3-d]pyrimidin-6-one] are 117%, 6.65, 9.60 and “B (decrease in SBP 5-10 mmHg)”.
In the case of `Cc1cnc(C2(C)C(=O)Nc3nc(-c4cn5ccnc5c(Cc5cccc(F)c5)n4)nc(N)c32)cc1O` (stereo not shown) [Example 151-A, 4-Amino-2-{8-(3-fluorobenzyl)imidazo[1,2-a]pyrazin-6-yl}-5-(4-hydroxy-5-methylpyridin-2-yl)-5-methyl-5,7-dihydro-6H-pyrrolo[2,3-d]pyrimidin-6-one], at sGC α1/β1 heterodimer, the Emax turned out to be 84% and the pEC50 was 5.75. In addition, the pKi in assay [1] was 9.81.
